Test results published in patent US12194039B2, “Methods of treating heart failure by administering omecamtiv mecarbil” (Cytokinetics, Inc., priority 2020, dated 2025).
Like-named read-outs stand apart in the source and are kept apart here.

Tested on: patients with HFrEF by ejection fraction quartile
Type: in vivo, human
Set-up: Change from baseline in KCCQ Total Symptom Score, least square mean / KCCQ Total Symptom Score Inpatient, Treatment Difference, least squares mean / KCCQ Total Symptom Score Outpatient, Treatment Difference, least squares mean / KCCQ Total Symptom Score, Treatment Difference, least squares mean: scale not given here
Settings: for Adjudicated First Major Cardiac Ischemic Events, % / Adjudicated First Stroke, % / Adverse Event: Ventricular Tachyarrhythmia, % / All-cause Death (%) / All-cause Death Rate / All-cause Death n/N / Any treatment Emergent Serious Adverse Events, % / Positively Adjudicated Myocardial Infarction, % / Serious Adverse Event: Ventricular Arrhythmia Requiring Treatment, % / 1st HF Hospitalization (%) / 1st HF Hospitalization Rate / 1st HF Hospitalization n/N / First HF Event (%) / First HF Event Rate / First HF Event n/N / Primary Outcome (%) / Primary Outcome Rate / Primary Outcome n/N / Total HF Events, Events / Total HF Events, Rate / Total HF Hospitalizations, Events / Total HF Hospitalizations, Rate: OM group; for Adjudicated First Major Cardiac Ischemic Events, Relative Risk / Adjudicated First Stroke, Relative Risk / Adverse Event: Ventricular Tachyarrhythmia, Relative Risk / All-cause Death ARR / All-cause Death HR (95% CI) / Any treatment Emergent Serious Adverse Events, Relative Risk / Positively Adjudicated Myocardial Infarction, Relative Risk / Serious Adverse Event: Ventricular Arrhythmia Requiring Treatment, Relative Risk / 1st HF Hospitalization ARR / 1st HF Hospitalization HR (95% CI) / First HF Event ARR / First HF Event HR (95% CI) / Primary Outcome ARR / Primary Outcome HR (95% CI) / Total HF Events, ARR / Total HF Events, Ratio (95% CI) / Total HF Hospitalizations, ARR / Total HF Hospitalizations, Ratio (95% CI): OM vs placebo
Description: Continuous variables were summarized via means and standard deviations or medians and interquartile ranges, as appropriate. Categorical variables are summarized with counts and percentages. Tests of trend across categories were conducted via linear regression, Cuzick's non-parametric trend test, and Chi-squared tests of trend, respectively. Treatment effects on continuous outcomes were assessed via linear regression models adjusted for the corresponding baseline value of the parameter of interest. Survival analyses were conducted using Poisson regression models to estimate incidence rates, rate differences, and rate ratios and Cox proportional hazards models to estimate hazard ratios. […] To allow for potentially non-linear associations between ejection fraction and time-to-event outcomes, restricted cubic splines were utilized in the Poisson regression models with 3 knots. All analyses were conducted using STATA 16 (College Station, Tex.). P-values <0.05 were considered statistically significant. Due to the exploratory nature of these analyses, no adjustments were made for multiple comparisons.
Within each randomization setting subgroup least squares mean is from the mixed model which includes baseline total symptom score value, region, baseline eGFR, scheduled visit, treatment group and interaction of treatment with scheduled visit as covariates. Influence of Ejection Fraction on the Treatment Effect of Omecamtiv Mecarbil

[1] = EF 23-28%, baseline to Week 24, vs placebo
[2] = EF 29-32%, baseline to Week 24, vs placebo

SMILES: COC(=O)N1CCN(Cc2cccc(NC(=O)Nc3ccc(C)nc3)c2F)CC1 [omecamtiv mecarbil]
- Adjudicated First Major Cardiac Ischemic Events, % (EF22%): 4.8%
- Adjudicated First Stroke, % (EF22%): 1.5%
- Adverse Event: Ventricular Tachyarrhythmia, % (EF22%): 9.8%
- All-cause Death (%) (EF22%): (29%)
- All-cause Death Rate (EF22%): 17.0 per 100 patient years
- All-cause Death n/N (EF22%): 329/1127
- Any treatment Emergent Serious Adverse Events, % (EF22%): (60.7%)
- Positively Adjudicated Myocardial Infarction, % (EF22%): 3.3%
- Serious Adverse Event: Ventricular Arrhythmia Requiring Treatment, % (EF22%): 3.6%
- Adjudicated First Major Cardiac Ischemic Events, Relative Risk (EF22%): RR: 1.19
- Adjudicated First Stroke, Relative Risk (EF22%): RR: 0.65
- Adverse Event: Ventricular Tachyarrhythmia, Relative Risk (EF22%): RR: 1.00
- All-cause Death ARR (EF22%): 0.8 per 100 patient years
- All-cause Death HR (95% CI) (EF22%): 0.98 (0.84, 1.14)
- Any treatment Emergent Serious Adverse Events, Relative Risk (EF22%): RR: 0.94
- Positively Adjudicated Myocardial Infarction, Relative Risk (EF22%): RR: 1.22
- Serious Adverse Event: Ventricular Arrhythmia Requiring Treatment, Relative Risk (EF22%): RR: 0.88
- 1st HF Hospitalization (%) (EF 23-28%): (27%)
- 1st HF Hospitalization Rate (EF 23-28%): 17.8 per 100 patient years
- 1st HF Hospitalization n/N (EF 23-28%): 295/1086
- Adjudicated First Major Cardiac Ischemic Events, % (EF 23-28%): 4.3%
- Adjudicated First Stroke, % (EF 23-28%): 1.8%
- Adverse Event: Ventricular Tachyarrhythmia, % (EF 23-28%): 8.3%
- All-cause Death (%) (EF 23-28%): (26%)
- All-cause Death Rate (EF 23-28%): 14.4 per 100 patient years
- All-cause Death n/N (EF 23-28%): 278/1086
- Any treatment Emergent Serious Adverse Events, % (EF 23-28%): (56.9%)
- First HF Event (%) (EF 23-28%): (28%)
- First HF Event Rate (EF 23-28%): 18.5 per 100 patient years
- First HF Event n/N (EF 23-28%): 304/1086
- Positively Adjudicated Myocardial Infarction, % (EF 23-28%): 2.7%
- Primary Outcome (%) (EF 23-28%): (36%)
- Primary Outcome Rate (EF 23-28%): 24.0 per 100 patient years
- Primary Outcome n/N (EF 23-28%): 393/1086
- Serious Adverse Event: Ventricular Arrhythmia Requiring Treatment, % (EF 23-28%): 3.2%
- Total HF Events, Events (EF 23-28%): 577
- Total HF Events, Rate (EF 23-28%): 30.0 per 100 pt-yrs
- Total HF Hospitalizations, Events (EF 23-28%): 541
- Total HF Hospitalizations, Rate (EF 23-28%): 28.1 per 100 pt-yrs
- 1st HF Hospitalization ARR (EF 23-28%): 1.8 per 100 patient years
- 1st HF Hospitalization HR (95% CI) (EF 23-28%): 0.86 (0.74, 1.01)
- Adjudicated First Major Cardiac Ischemic Events, Relative Risk (EF 23-28%): 1.00
- Adjudicated First Stroke, Relative Risk (EF 23-28%): 0.53
- Adverse Event: Ventricular Tachyarrhythmia, Relative Risk (EF 23-28%): 0.98
- All-cause Death ARR (EF 23-28%): 1.4 per 100 patient years
- All-cause Death HR (95% CI) (EF 23-28%): 0.89 (0.76, 1.05)
- Any treatment Emergent Serious Adverse Events, Relative Risk (EF 23-28%): 0.96
- First HF Event ARR (EF 23-28%): 2.4 per 100 patient years
- First HF Event HR (95% CI) (EF 23-28%): 0.84 (0.72, 0.98)
- Positively Adjudicated Myocardial Infarction, Relative Risk (EF 23-28%): 0.89
- Primary Outcome ARR (EF 23-28%): 3.3 per 100 patient years
- Primary Outcome HR (95% CI) (EF 23-28%): 0.85 (0.74, 0.97)
- Serious Adverse Event: Ventricular Arrhythmia Requiring Treatment, Relative Risk (EF 23-28%): 1.04
- Total HF Events, ARR (EF 23-28%): 4.0 per 100 pt-yrs
- Total HF Events, Ratio (95% CI) (EF 23-28%): 0.83 (0.68, 1.01)
- Total HF Hospitalizations, ARR (EF 23-28%): 3.2 per 100 pt-yrs
- Total HF Hospitalizations, Ratio (95% CI) (EF 23-28%): 0.84 (0.69, 1.02)
- Creatinine, Treatment Difference [1]: 0.01 mg/dL
- Heart rate, Treatment Difference [1]: −1.7 bpm
- KCCQ Total Symptom Score, Treatment Difference, least squares mean [1]: −0.6
- NT-proBNP (Ratio) [1]: 0.90
- Potassium, Treatment Difference [1]: -0.01 mmol/L
- Systolic BP, Treatment Difference [1]: −0.6 mmHg
- Troponin I (Ratio) [1]: 1.29
- Troponin I, Treatment Difference (95% CI) [1]: 4 (3, 5) ng/L
- 1st HF Hospitalization (%) (EF 29-32%): (27%)
- 1st HF Hospitalization Rate (EF 29-32%): 17.6 per 100 patient years
- 1st HF Hospitalization n/N (EF 29-32%): 279/1015
- Adjudicated First Major Cardiac Ischemic Events, % (EF 29-32%): 4.1%
- Adjudicated First Stroke, % (EF 29-32%): 2.4%
- Adverse Event: Ventricular Tachyarrhythmia, % (EF 29-32%): 6.9%
- All-cause Death (%) (EF 29-32%): (26%)
- All-cause Death Rate (EF 29-32%): 13.9 per 100 patient years
- All-cause Death n/N (EF 29-32%): 260/1015
- Any treatment Emergent Serious Adverse Events, % (EF 29-32%): (57.3%)
- First HF Event (%) (EF 29-32%): (28%)
- First HF Event Rate (EF 29-32%): 18.2 per 100 patient years
- First HF Event n/N (EF 29-32%): 286/1015
- Positively Adjudicated Myocardial Infarction, % (EF 29-32%): 2.2%
- Primary Outcome (%) (EF 29-32%): (37%)
- Primary Outcome Rate (EF 29-32%): 23.8 per 100 patient years
- Primary Outcome n/N (EF 29-32%): 375/1015
- Serious Adverse Event: Ventricular Arrhythmia Requiring Treatment, % (EF 29-32%): 2.1%
- Total HF Events, Events (EF 29-32%): 506
- Total HF Events, Rate (EF 29-32%): 27.1 per 100 pt-yrs
- Total HF Hospitalizations, Events (EF 29-32%): 472
- Total HF Hospitalizations, Rate (EF 29-32%): 25.3 per 100 pt-yrs
- 1st HF Hospitalization ARR (EF 29-32%): −2.1 per 100 patient years
- 1st HF Hospitalization HR (95% CI) (EF 29-32%): 1.19 (1.01, 1.42)
- Adjudicated First Major Cardiac Ischemic Events, Relative Risk (EF 29-32%): 1.08
- Adjudicated First Stroke, Relative Risk (EF 29-32%): 0.83
- Adverse Event: Ventricular Tachyarrhythmia, Relative Risk (EF 29-32%): 0.96
- All-cause Death ARR (EF 29-32%): −2.0 per 100 patient years
- All-cause Death HR (95% CI) (EF 29-32%): 1.19 (0.99, 1.42)
- Any treatment Emergent Serious Adverse Events, Relative Risk (EF 29-32%): 0.99
- First HF Event ARR (EF 29-32%): −1.3 per 100 patient years
- First HF Event HR (95% CI) (EF 29-32%): 1.13 (0.96, 1.33)
- Positively Adjudicated Myocardial Infarction, Relative Risk (EF 29-32%): 1.00
- Primary Outcome ARR (EF 29-32%): −1.4 per 100 patient years
- Primary Outcome HR (95% CI) (EF 29-32%): 1.11 (0.96, 1.28)
- Serious Adverse Event: Ventricular Arrhythmia Requiring Treatment, Relative Risk (EF 29-32%): 0.78
- Total HF Events, ARR (EF 29-32%): 0.6 per 100 pt-yrs
- Total HF Events, Ratio (95% CI) (EF 29-32%): 1.14 (0.93, 1.40)
- Total HF Hospitalizations, ARR (EF 29-32%): −0.1 per 100 pt-yrs
- Total HF Hospitalizations, Ratio (95% CI) (EF 29-32%): 1.18 (0.96, 1.46)
- Creatinine, Treatment Difference [2]: 0.01 mg/dL
- Heart rate, Treatment Difference [2]: −1.9 bpm
- KCCQ Total Symptom Score, Treatment Difference, least squares mean [2]: +0.3
- NT-proBNP (Ratio) [2]: 0.95
- Potassium, Treatment Difference [2]: -0.01 mmol/L
- Systolic BP, Treatment Difference [2]: −0.6 mmHg
